Patent US12661329B2, “Methods of generating oligodendrocytes” (Hadasit Medical Research Services and Development Ltd., priority 2019, dated 2026)

Assays:
[1] = test system: oligodendrocyte progenitors (OLPs) isolated from mouse cerebral cortex; details: cited from earlier work
[2] = test system: EAE mice; assay: ICV delivery in chronic EAE, Biozzi mouse model of Multiple Sclerosis; format: in vivo, Biozzi ABH mice; details: ICV mini-osmotic pump, 5 μg per day, vs vehicle-treated EAE mice
Source text: The Biozzi mouse model of Multiple Sclerosis: Biozzi ABH mice have genetic tendency to develop autoimmune diseases, and are used for many autoimmune models. The experimental autoimmune model in Biozzi mice is induced by immunization with spinal cord homogenate. Typically, mice develop an acute relapse, followed by remission, and after that a relapsing and progressive course of disease, resembling human multiple sclerosis (MS). […] In the chronic phase of EAE there are typical immunopathological features resembling progressive MS, such as meningeal infiltrates and development of tertiary lymphoid-like tissue, partial closing of the blood-brain-barrier, and reduction in lesion activity with increase in astrogliosis. Therefore, this model is considered one of the most clinical-relevant experimental models of MS. EAE was induced in Biozzi mice. Briefly, mice were inoculated subcutaneously at day 0 and day 7 in both hind flanks with 1 mg spinal cord homogenate emulsified in complete Freund's adjuvant supplemented with 3 μg M. Butyricum. Mice were monitored and scored daily in a blinded manner as follows: 0=normal, 1=limp tail, 2=impaired righting reflex, 3=hind-limb paresis; 4=complete hind-limb paralysis and 5=moribund/death. 10-14 days after the second relapse the mice were divided into two prospective experimental groups. […]

[3] = test system: hESC-derived pre-OLs (MBP reporter cells); assay: Maturation of MBP-Tomato reporter pre-OLs under normoxia or after 48 h hypoxia (in vitro white matter injury model); format: cell-based, human; details: for proportion of MBP Tomato co-expressing oligodendrocytes: PD0325901 0.25 μM alone or combined, vs vehicle (FIG. 13); for proportion of MBP+ Tomato+ mature oligodendrocytes: noggin 100 ng/ml, DAPT 1 μM
Procedure: (§1) Human ESCs (HES1 passages 21 to 42 with a normal karyotype) were cultured as described. hESC colonies were picked up by means of collagenase IV (1 mg/ml; GIBCO-BRL, Gaithersburg, MD) and placed into ultralow adherent culture dishes (Thermo Scientific Nunc HydroCell) to favor sphere aggregation. Spheres were cultured in NDM media consisting of Neural Differentiation Medium (Gibco) and N2B27 supplements with 20 ng/ml FGF-2. Spheres were first patterned with the dual-SMAD inhibitors LDN193189 (1 μM, Cayman Chemical, Ann Arbor, MI) and SB431542 (5 μM, SB; PeproTech Inc, Rocky Hill, NJ) until day 4 when SB431542 was withdrawn and the spheres were further cultured for additional 10 days in the presence LDN193189 and FGF-2. At day 14, the spheres were caudalized and ventralized using 0.1 μM all-trans retinoic acid and 0.5 μM purmorphamine, respectively (PeproTech Inc, Rocky Hill, NJ). At day 35, spheres were switched to modified SATO media, consisting of DMEM/F12, 10 ng/ml biotin, 60 ng/ml progesterone, 16 μg/ml putrescine, 20 μg/ml human insulin, 100 μg/ml apotransferrin, 5 ng/ml sodium selenite, 100 μg/ml bovine serum albumin (BSA), 60 μg/ml N-acetyl cysteine and 2 μg/ml forskolin. The medium was further supplemented with 20 ng/ml FGF-2, 0.5 μM Purmorphamine, 5 ng/ml NT3 and 200 nM ascorbic acid. Media was changed every 3 days for 6-7 weeks. For differentiation, spheres were dissected into small clusters mechanically and plated onto poly-D-lysine/laminin-coated plates and cultured in modified SATO media supplemented with 5 ng/ml NT3, 10 ng/ml IGF-1, 60 ng/ml T3, 100 ng/ml noggin and 200 nM ascorbic acid for 2-4 weeks.
To block Notch signaling, the γ-secretase inhibitor, DAPT (N—[N-(3,5-difluorphenacetyl)-L-alanyl]-S-phenylglycine t-butyl ester), PeproTech Inc, Rocky Hill, NJ) was added freshly every other day to the cells to a concentration of 1 μM. To block MEK/ERK signaling, PD0325901 (PeproTech Inc, Rocky Hill, NJ) was added freshly every other day to the cells to a concentration of 0.25-0.5 μM.
Immunocytochemistry: Cells were fixed in 4% paraformaldehyde for 20 min, washed with PBS, blocked in blocking solution (5% donkey serum, 0.2% Triton X-100 in PBS) for 1 hour, and incubated for 2 hours with primary antibodies mouse anti-Olig2 (Millipore Corporation diluted 1:150) and mouse anti-Nkx-2.2 (Developmental Studies Hybridoma Bank, diluted 1:100). After washing, cells were incubated with secondary antibody, donkey anti-mouse Alexa-488 (Life Technologies, Inc.), for 1 hour before being mounted in VECTASHIELD™ mounting medium. For O4 staining, cells were blocked in blocking solution (5% donkey serum in DMEM/F12) for 1 hour, and incubated with mouse-anti O4 antibody (R&D System, diluted 1:100) for 2 hours. After washing, cells were fixed in 4% paraformaldehyde for 20 min, and incubated with secondary antibody, donkey anti-mouse Alexa-488 or Alexa-555 (Life Technologies, Inc.), for 1 hour before being mounted in VECTASHIELD™ mounting medium. For MBP staining, after fixation cells were washed with PBS+0.01% saponin, blocked in blocking solution (5% goat serum, 0.01% saponin in DMEM/F12) for 1 hour, and incubated with rat anti-MBP antibody (R&D System 1:100) for 2 hours. After washing, cells were incubated with secondary antibody, goat anti-rat antibody (Jackson laboratories, 1:100) for 1 hour before being mounted in VECTASHIELD™ mounting medium.
Plasmid construction and gene targeting: Oligonucleotide encoding the MBP-targeting sgRNA was custom ordered (hy.labs), hybridized and ligated into the BbsI restriction site of pX330-U6-Chimeric-BB-CBh-hSpCas9 vector (Addgene #42230). Homology arms from the human mbp locus were amplified from genomic DNA isolated from HES1 cells by nested PCR (5′ arm: Chr18:74692386-74693344, 3′ arm: Chr18:74691209-74692367). The PCR products was digested and ligated into PNTKV-2A-Tomato donor plasmid. Correct construction of each expression cassette was verified by sequence analysis. […]

[4] = test system: hESC-derived pre-OL; assay: Terminal maturation of hESC-derived pre-oligodendrocytes into MBP+ oligodendrocytes (MBP immunostaining); format: cell-based, human; details: pre-OL on laminin
Procedure: as §1, with “2-4 weeks. […] To block MEK/ERK signaling, PD0325901 (PeproTech Inc, Rocky Hill, NJ) was added freshly every other day to the cells to a concentration of 0.25-0.5 μM. […]” for “2-4 weeks.”

[5] = test system: MEK-ERK signalling; details: mouse; earlier stage of differentiation of the oligodendroglial lineage; cited from earlier work
[6] = test system: oligodendroglial differentiation; details: cited from earlier work
[7] = hypoxia 48 hours, then 3 weeks normoxia, vs vehicle

In the case of `Oc1nc(-c2ccc(C(F)(F)F)cc2)nc2c1CSCC2` [XAV939], the “differentiation of oligodendrocyte progenitors (OLPs)” value [1] is given as “promote differentiation”.

With `O=C(NOC[C@H](O)CO)c1ccc(F)c(F)c1Nc1ccc(I)cc1F` [PD0325901] the “disease course: mean cumulative score of disease” value ([2]; 28 days from implantation) was “significantly milder”, the “disease course: final clinical score at day of termination” value ([2]; 28 days) was “significantly milder” and the “proportion of MBP Tomato co-expressing oligodendrocytes” value ([3]; hypoxia exposed, one week following hypoxia) was “increased proportion”. For the same molecule, the “MBP+ Tomato+-expressing oligodendrocytes” value ([3]; hypoxia-exposed cultures, 0.25 μM or 0.5 μM for one week) was “marked increase”, the “branching of processes of MBP+ Tomato+ oligodendrocytes” value ([3]; hypoxia-exposed cultures, one week) was “marked increase” and the “number of MBP Tomato co-expressing oligodendrocytes” value (from here on “number”) ([3]; hypoxia-exposed, 0.25 μM, one week following hypoxia, vs vehicle (FIG. 11)) was “increased number”. For the same molecule, the “number” value ([3]; hypoxia-exposed, 0.5 μM, one week following hypoxia, vs vehicle (FIG. 12)) was “increased number”, the “proportion of MBP+ Tomato+ oligodendrocytes” value ([3]; normoxia, 0.25 μM or 0.5 μM for one week, vs vehicle) was “significant increase” and the “number” value ([3]; normoxia, 0.25 μM, one week, vs vehicle (FIG. 11)) was “increased number”. The “number” value ([3]; normoxia, 0.5 μM, one week, vs vehicle (FIG. 12)) was “increased number”, the “proportion of MBP Tomato co-expressing oligodendrocytes” value ([3]; normoxia, one week) was “increased proportion” and the “branching of the processes of MBP+ oligodendrocytes” value ([3]; normoxia, one week) was “significantly enhanced”. For the same molecule, the “effect on pre-OLs maturation compared with noggin or DAPT” value ([3]; one week of treatment vs two-three weeks with noggin and/or DAPT) was “more prominent”, the “culture period after which maturation was obtained” value [4] was 1 week and the “branching of processes of MBP+ cells” value ([4]; 1 week) was “enhanced branching”. The “proportion of MBP mature oligodendrocytes / maturation into MBP+ cells” value ([4]; DAPT+noggin 2 weeks, PD0325901 1 week, vs vehicle) was “highly significant augmentation” and the oligodendrocyte differentiation [5] was “augment oligodendrocyte differentiation”.

For `C[C@H](NC(=O)Cc1cc(F)cc(F)c1)C(=O)N[C@H](C(=O)OC(C)(C)C)c1ccccc1` [DAPT, N—[N-(3,5-difluorphenacetyl)-L-alanyl]-S-phenylglycine t-butyl ester], the “proportion of MBP+ Tomato+ mature oligodendrocytes” value [3, 7] was “increased differentiation” and the “proportion of MBP+ Tomato+ mature oligodendrocytes” value ([3]; normoxia, 3 weeks, vs vehicle) was “did not increase”.

B1: noggin: BMP antagonist (protein, UniProt Q13253 28-232, looked up)
Noggin: QHYLHIRPAPSDNLPLVDLIEHPDPIFDPKEKDLNETLLRSLLGGHYDPGFMATSPPEDRPGGGGGAAGGAEDLAELDQLLRQRPSGAMPSEIKGLEFSEGLAQGKKQRLSKKLRRKLQMWLWSQTFCPVLYAWNDLGSRFWPRYVKVGSCFSKRSCSVPEGMVCKPSKSVHLTVLRWRCQRRGGQRCGWIPIQYPIISECKCSC
For B1, the “proportion of MBP+ Tomato+ mature oligodendrocytes” value [3, 7] is given as “substantial increase”, the “proportion of MBP+ Tomato+ mature oligodendrocytes” value ([3]; normoxia, 3 weeks, vs vehicle) is given as “substantial increase” and the “oligodendroglial differentiation and maturation” value [6] is given as “enhance oligodendroglial differentiation and maturation”.
